{"source": "patent US20190328721A1", "about": "“METHOD OF ACTIVATING DENDRITIC CELLS” (KOREA INSTITUTE OF SCIENCE AND TECHNOLOGY, priority 2018, published 2019)", "key": {"CT26.CL25 cancer cells": {"tested_on": "CT26.CL25 cancer cells", "assay": "CT26.CL25 tumor model", "type": "in vivo, Balb/c wild type mice", "conditions": "10 mg/kg intravenous", "protocol": "(§1) CT26.CL25 cancer cells (1×10^6) expressing β-galactosidase were subcutaneously injected into the left back of a Balb/c wild type mice to generate a tumor model Similarly, an […] tumor model was prepared by subcutaneously injecting melanoma cell line B16F10-Ova cells (5×10^5) into the left back of C57L/B6 wild-type mice to induce cancer.\n(§2) In the case of the CT26.CL25 cancer cell line, 6 days after the injection of the cancer cells, and in the case of B 16F10-Ova, 9 days after the injection of the cancer cells, Y27632 was administered by intravenous injection at a dose of 10 mg/kg as indicated in FIG. 8a. In the case of the CT26.CL25 model, the mice were sacrificed on the 22nd day after the injection of the cancer cells and in the case of the B16F10-Ova cancer model, the mice were sacrificed on the 20th day after the injection of the cancer cells (FIG. 8A). As a negative control, phosphate-buffered saline was administered instead of Y27632.\n(§3) The tumor tissues of the mice were excised, an ex vivo image was taken and the tumor tissue were weighed (FIG. 8B). In addition, before the mice were sacrificed, changes in body weights were measured at intervals of 3 days from the 6th day of the cancer cell injection in the CT26.CL25 cancer model and at intervals of 3 days from the 9th day in the B16F10-Ova cancer model (FIG. 8c). Length (L) and width (W) of the tumor tissues were measured, and the volume of the tumor tissues over time was calculated using the following formula (FIGS. 8D and 8E):\n(§4) The volume of tumor tissue (V[mm^3])=(L[mm])[…] (W[mm])^2×0.5."}, "[1]": {"tested_on": "macrophages (F4/80+ cells) and dendritic cells (CD11c+ cells)", "assay": "In vivo phagocytosis of injected apoptotic thymocytes by spleen phagocytes", "parameters": "species or system mice", "conditions": "10 mg/kg intraperitoneally; spleen after 1 hour", "protocol": "The present inventors investigated whether the phagocytosis caused by the ROCK inhibitor could be enhanced not only in vitro but also in vivo. For this purpose, thymocytes stained with CFSE (carboxyfluorescein succinimidyl ester, Thermo Fisher Scientific, Inc., USA) and in which apoptosis was induced by 1 μM dexamethasone were injected to the blood vessel of mice who were pre-injected with 10 mg/kg of Y27632 intraperitoneally. After 1 hour, the spleen was extracted from the mice and the spleen was single celled. The phagocytic activities of macrophages (F4/80^+ cells) and dendritic cells (CD11c^+ cells) against apoptotic thymocytes were analyzed (FIGS. 7B and 7C)."}, "CT26.CL25 cell line": {"tested_on": "CT26.CL25 cell line", "assay": "CT26.CL25 tumor model in immunodeficient nude mice", "type": "in vivo", "conditions": "10 mg/kg intravenous", "protocol": "Specifically, immunodeficient nude mice were subcutaneously injected with 1×10^6 cells of CT26.CL25 cell line in order to induce cancer. After the 11 days from the injection of the cancer cells, tumor size was 50-100 mm^3, and Y27632 was administered at a dose of 10 mg/kg continuously for two consecutive days by intravenous injection, followed by a day of rest as a cycle, followed by 3 cycles of 3-day intervals (FIG. 9A). As a negative control group, only phosphate buffered saline (PBS) was administered. The tumor tissues were excised and an ex vivo image was taken. In addition, before the mice were sacrificed, the change in body weight was measured at intervals of 3 days from the 11th day of cancer cell injection in the case of CT26.CL25 cancer model, and the length (L) and width (W) were measured, and the volume of the tumor tissues was measured using the equation described in Example 2-1 (FIG. 9B)."}, "CD103 DCs": {"tested_on": "CD103 DCs", "assay": "Phagocytosis of cancer cells by dendritic cells excised from tumor tissues", "type": "in vivo", "conditions": "compared with CD103 DCs from control mice", "text": "The present inventors excised dendritic cells from tumor tissues and analyzed the phagocytosis of dendritic cells against cancer cells in vitro using the same method as described in Example 1-1."}, "B16F10-Ova cells": {"tested_on": "B16F10-Ova cells", "assay": "B16F10-Ova tumor model", "type": "in vivo, C57L/B6 wild-type mice", "conditions": "10 mg/kg intravenous", "protocol": "as §1, §2, §3, §4"}, "[2]": {"tested_on": "bone marrow-derived dendritic cells (BMDC)", "assay": "Cross presentation of H-2Kb-Ova by BMDCs in vitro", "type": "cell-based, mice", "conditions": "Y27632 30 μM, 1 hour on BMDCs; cancer cells doxorubicin treated or untreated", "protocol": "Furthermore, the inventors investigated whether the cross presentation of dendritic cells was promoted by the combination treatment of doxorubicin and Y27632. To this end, the present inventors used 30 μM of Y27632 to pretreat bone marrow-derived dendritic cells (BMDC) stained with CellTracker CMFDA (Thermo Fisher Scientific, USA) for 1 hour, followed by treatment with doxorubicin treated B16F10-Ova cells or doxorubicin untreated B16F10-Ova cells. After the co-culture, floating cancer cells were removed by withdrawing supernatant. Cross presentation activity, which is one of functions of dendritic cells, was analyzed via flow cytometry analysis using an antibody capable of detect a cancer antigen (H-2K^b-Ova) capable of activating T cells, through flow cytometry analysis using an antibody (H-2K^b monoclonal antibody, Invitrogen, USA)."}, "[3]": {"tested_on": "CT26.CL25 cancer cell line", "assay": "CT26.CL25 tumor model with depletion of immune cells", "type": "in vivo, mice", "conditions": "10 mg/kg intravenous", "protocol": "Specifically, tumor model mice were prepared by subcutaneously injecting 1×10^6 cells of CT26.CL25 cancer cell line expressing β-galactosidase into wild type mice by subcutaneous injection into the left side or the like.\nFor the depletion of phagocytic cells in the tumor model mice, 200 μl of control liposome (FormuMax Scientific, Inc., USA) or 200 μl of clodronate liposome (FormuMax Scientific, Inc., USA) were injected intraperitoneally 5 days after cancer cell injection, and then 100 μl of the liposomes were intraperitoneally injected at intervals of 4 days until the end of the experiment Similarly, for the depletion of CD8 T cells or CD4 T cells, 200 μg of anti-CD8a antibodies (clone 2.43, bioXcell) or anti-CD4 antibodies (Clone GK 1.5, bioXcell, USA) were intraperitoneally injected (FIGS. 10A and 10B) to the tumor model mice. As a negative control, only the carrier (PBS) or the rat-derived nonspecific antibodies (rIgG, Clone LTF-2, bioXcell, USA) was administered to the tumor model mice.\nFrom the 6th day after the injection of the cancer cells, Y27632 was administered at a dose of 10 mg/kg continuously for two consecutive days via intravenous injection, followed by a day of rest as a cycle, followed by 3 cycles of 3-day intervals. Mice were sacrificed 22 days after the injection of cancer cells, the tumor tissues were excised, and ex vivo images were taken, and the tumor tissues were weighed. Before the sacrifice of the mice, the volume of the tumor over time was calculated as described above (FIGS. 10E and 10F). […] Thus, we confirmed that the therapeutic effect of ROCK inhibitors appears to require CD8 T cells. […] As a control, a rat-derived nonspecific antibody (rIgG, BioXcell, USA) was used."}}, "data": [{"smiles": "C[C@@H](N)[C@H]1CC[C@H](C(=O)Nc2ccncc2)CC1", "note": "[Y27632]", "values": [{"measurement": "body weight of the mice", "setting": "CT26.CL25 cancer cells", "result": "no significant change"}, {"measurement": "volume of the tumors", "setting": "CT26.CL25 cancer cells", "result": "significantly decreased"}, {"measurement": "weight of the tumors", "setting": "CT26.CL25 cancer cells; day 22", "result": "significantly decreased"}, {"measurement": "phagocytosis of spleen dendritic cells against apoptotic thymocytes", "setting": "[1]", "result": "significantly enhanced"}, {"measurement": "phagocytosis of spleen macrophages against apoptotic thymocytes", "setting": "[1]", "result": "significantly enhanced"}, {"measurement": "anti-cancer effect (tumor volume) in nude mice lacking immune function", "setting": "CT26.CL25 cell line", "result": "only a limited anti-cancer effect"}, {"measurement": "phagocytosis against cancer cells of CD103 DCs isolated from treated mice", "setting": "CD103 DCs", "result": "significantly enhanced"}, {"measurement": "body weight of the mice", "setting": "B16F10-Ova cells", "result": "no significant change"}, {"measurement": "volume of the tumors", "setting": "B16F10-Ova cells", "result": "significantly decreased"}, {"measurement": "weight of the tumors", "setting": "B16F10-Ova cells; day 20", "result": "significantly decreased"}, {"measurement": "cross presentation (H-2Kb-Ova) of BMDCs co-cultured with B16F10-Ova cells", "setting": "[2]", "result": "increased the cross-presentation"}, {"measurement": "anti-cancer effect when CD8 T cells were depleted by anti-CD8a antibodies", "setting": "[3]", "result": "disappeared"}, {"measurement": "anti-cancer effect when phagocytic cells were depleted by clodronate", "setting": "[3]", "result": "disappeared"}, {"measurement": "anticancer effect when CD4 T cells were deficient", "setting": "[3]", "result": "anticancer effect similar to that in normal mice"}]}]}
